Reference: the RepoRT retention time repository
Where a name gives a salt, the structure may show the parent alone.

Test: RP, Thermo Scientific Hypersil GOLD, 1.9 µm, 40 °C, 0.4 mL/min; A: water + 0.1% formic acid, pH 3; B: acetonitrile + 0.1% formic acid, pH 3; gradient (min/%B) 0/0 1/0 11/100 13/100 14/0 16/0
Conditions: stereoisomer not certain

LC retention time [min]	Structure (SMILES)
5.67	COc1cc(C=CC(=O)O)ccc1O [FERULATE]
3.31	Nc1ccccc1C(=O)CC(N)C(=O)O (stereo not given) [KYNURENINE]
8.19	C=C(C)C1CC=C(C)C(=O)C1 [(R)-(-)-Carvone]
4.56	CC(=O)N[C@@H](Cc1ccc(O)cc1)C(=O)O [N-Acetyl-L-tyrosine]
5.01	CC(CCC(=O)O)CC(=O)O (stereo not given) [3-Methyladipic acid]
4.41	Cn1c(=O)[nH]c2ncn(C)c2c1=O [PARAXANTHINE]
0.62	NC(C(=O)O)C(O)C(O)C(O)CO (stereo not given) [GLUCOSAMINATE]
13.5	CCCCCCCCC=CCCCCCCCCCCCC(=O)O [ERUCATE]
0.5	CC(=O)NCCCNCCCCNCCCN [N1-ACETYLSPERMINE]
1.27	Nc1ncnc2c1ncn2C1OC(COP(=O)(O)OP(=O)(O)OC2OC(CO)C(O)C(O)C2O)C(O)C1O (stereo not given) [ADP-GLUCOSE]
4.1	NC(=O)[C@@H](N)Cc1c[nH]c2ccccc12 [L-TRYPTOPHANAMIDE]
1.48	CC(O)(CC(=O)O)CC(=O)O [3-HYDROXYMETHYLGLUTARATE]
5.42	CC1OC(OCC2OC(Oc3c(-c4ccc(O)c(O)c4)oc4cc(O)cc(O)c4c3=O)C(O)C(O)C2O)C(O)C(O)C1O (stereo not given) [rutin hydrate]
0.7	OCC1OCC(O)C(O)C1O [1-5-Anhydro-D-sorbitol]
4.83	O=C(O)CCc1ccc(O)cc1O [3-(2-4-Dihydroxyphenyl)propionic acid]
1.73	Cc1ncc(CO)c(C(=O)O)c1O [4-PYRIDOXATE]
0.7	Nc1ccn(C2OC(CO)C3OP(=O)(O)OC32)c(=O)n1 (stereo not given) [CYTIDINE 2'-3'-CYCLIC PHOSPHATE]
0.62	CNCC(=O)O [SARCOSINE]
0.83	CN1C(=O)CCC1c1cccnc1 (stereo not given) [Cotinine]
0.81	O=c1[nH]c(=O)c2[nH]c(=O)[nH]c2[nH]1 [URATE]
3.29	Nc1ccc(C(=O)O)cc1 [4-AMINOBENZOATE]
0.83	O=c1[nH]c(=O)c2ncn(C3OC(COP(=O)(O)O)C(O)C3O)c2[nH]1 (stereo not given) [XANTHOSINE-MONOPHOSPHATE]
0.64	OC1COC(O)C(O)C1O (stereo not given) [XYLOSE]

LC retention time [min]	Structure (SMILES)
1.53	O=c1[nH]cnc2c1ncn2C1OC(CO)C(O)C1O (stereo not given) [INOSINE]
2.04	O=C(O)c1cccc[n+]1[O-] [Picolinic acid N-oxide]
6.42	CC(=O)C1C(=O)C=C(C)OC1=O (stereo not given) [Dehydroacetic acid]
4.34	O=CCc1c[nH]c2ccccc12 [INDOLEACETALDEHYDE]
6.32	CCCCCCSCC(NC(=O)CCC(N)C(=O)O)C(=O)NCC(=O)O (stereo not given) [S-HEXYL-GLUTATHIONE]
0.64	OCC(O)C(O)C(O)CO (stereo not given) [RIBITOL]
1.22	O=C(O)c1cccnc1C(=O)O [QUINOLINATE]
0.66	CN(CC(=O)O)C(=N)N [CREATINE]
7.44	COC(=O)Cc1c[nH]c2ccccc12 [INDOLE-3-METHYL ACETATE]
0.83	NC(C(=O)O)c1ccccc1 (stereo not given) [2-Phenylglycine]
0.82	O=c1ccn(C2OC(CO)C(O)C2O)c(=O)[nH]1 (stereo not given) [URIDINE]
0.69	Cc1ncccc1C(N)=O [2-Methylnicotinamide]
0.7	O=C[C@H](O)[C@H](O)CO [D-(-)-Erythrose]
0.81	Nc1ncccc1C(=O)O [2-Aminopyridine-3-carboxylic acid]
5.15	O=C(O)CCCCC1SCC2NC(=O)NC21 (stereo not given) [BIOTIN]
5.05	Cc1cc2nc3c(=O)[nH]c(=O)nc-3n(CC(O)C(O)C(O)CO)c2cc1C (stereo not given) [RIBOFLAVIN]
0.64	C[N+](C)(C)[O-] [trimethylamine N-oxide]
4.4	CC(C)CC(NC(=O)C1CCCN1)C(=O)O (stereo not given) [Pro-Leu]
3.83	c1ccc2ncccc2c1 [QUINOLINE]
0.64	NCC(=O)CCC(=O)O [5-AMINOLEVULINATE]
0.65	NC(CS(=O)(=O)O)C(=O)O (stereo not given) [CYSTEATE]
4.71	CC(C)=CC(=O)OC(CC(=O)[O-])C[N+](C)(C)C [3-Methylcrotonyl-L-carnitine]
5.31	Cc1ccccc1C(=O)NCC(=O)O [2-Methylhippuric acid (ortho-Methylhippuric acid)]

LC retention time [min]	Structure (SMILES)
2.15	Cn1cnc2[nH]c(=O)[nH]c(=O)c21 [7-Methylxanthine]
0.76	O=c1ccn(C2OC(COP(=O)(O)O)C(O)C2O)c(=O)[nH]1 (stereo not given) [URIDINE MONOPHOSPHATE]
8.44	CC(=O)C1(O)CCC2C3CCC4=CC(=O)CCC4(C)C3CCC21C (stereo not given) [17a-Hydroxyprogesterone]
0.83	Cc1ncc(COP(=O)(O)O)c(C=O)c1O [PYRIDOXAL-PHOSPHATE]
0.69	O=C(CO)COP(=O)(O)O [DIHYDROXYACETONE PHOSPHATE]
4.72	O=C([O-])C(O)c1ccccc1 (stereo not given) [MANDELATE]
9.23	CC1=C(/C=C/C(C)=C/C=C/C(C)=C/C=C/C=C(C)/C=C/C=C(C)/C=C/C2=C(C)CCCC2(C)C)C(C)(C)CCC1 [BETA-CAROTENE]
0.74	COC1OC(CO)C(O)C(O)C1O (stereo not given) [METHYL GALACTOSIDE]
1.26	Nc1nc2c(ncn2C2OC(CO)C(O)C2O)c(=O)[nH]1 (stereo not given) [GUANOSINE]
0.81	CC(=O)OC(CC(=O)[O-])C[N+](C)(C)C (stereo not drawn) [o-acetyl-l-carnitine hydrochloride]
4.41	CSCC1OC(n2cnc3c(N)ncnc32)C(O)C1O (stereo not given) [METHYLTHIOADENOSINE]
0.72	CC(=O)NC(CCCC[NH3+])C(=O)[O-] (stereo not drawn) [N-ALPHA-ACETYLLYSINE]
0.66	O=C1OC(C(O)CO)C(O)C1O [L-GULONOLACTONE]
0.83	Nc1ccn(C2CC(O)C(CO)O2)c(=O)n1 (stereo not given) [DEOXYCYTIDINE]
0.64	NC1(C(=O)O)CC1 [1-AMINOCYCLOPROPANECARBOXYLATE]
9.98	CCC(=O)C(=O)[O-] [2-OXOBUTANOATE]
0.71	O=C([O-])C(O)C(O)C(=O)[O-] (stereo not drawn) [MESO-TARTRATE]
0.82	O=c1[nH]c(=O)c2[nH]cnc2[nH]1 [XANTHINE]
0.6	CC(=O)N[C@@H]1[C@@H](O)[C@H](O)[C@@H](CO)O[C@H]1N [2-ACETAMIDO-2-DEOXY-BETA-D-GLUCOSYLAMINE]
7.67	CC(=O)OCC(=O)C1(O)CCC2C3CCC4=CC(=O)CCC4(C)C3C(O)CC21C (stereo not given) [CORTISOL 21-ACETATE]
11.7	C=Cc1c(C)c2cc3[nH]c(cc4nc(cc5nc(cc1[nH]2)C(C)=C5CCC(=O)O)C(CCC(=O)O)=C4C)c(C)c3C=C [PROTOPORPHYRIN]
11.5	CC(C=CC1=C(C)CCCC1(C)C)=CC=CC(C)=CC(=O)[O-] [RETINOATE]

Structure (SMILES)	LC retention time [min]
NCC[Se][Se]CCN [SELENOCYSTAMINE]	0.56
NCCc1ccccc1 [PHENETHYLAMINE]	4.03
